The record followed here is patent US4724238A, “Method of treating inflammatory diseases with labdan derivatives” (Hoechst Aktiengesellschaft, priority 1985, dated 1988).

The test system of one experiment is rat ear inflammation. Nature of the experiment: Croton oil-induced local inflammation test in rats (topical). The class given is in vivo, rat (Charles Foster's strain). The note with it: applied with the irritant, 4 hours. As to the method:
(b) Croton oil-induced local inflammation test in rats A volume of 0.05 ml of croton oil irritant (2.0 ml pyridine, 0.5 ml distilled water+7.4 ml diethyl ether+0.1 ml croton oil) is applied under ether anaesthesia to the anterior and posterior sides of the ear of rats weighing 45 to 60 g (Charles Foster's strain) with the help of a micro glass syringe and a blunt 20 gauge needle/Tonelli G., Thibault L. and Ringer I, Endocrinology 77, 625-634 (1965)/. The right untreated ear serves as control. The drug treated group receives different concentrations of compounds along with the irritant. Four hours later the animals are sacrificed. The ears are removed and punched with an 8 mm diameter cork borer. The punched portions are immediately weighed. The increase in the weight of ear is determined by the difference in the weight between the left and right ear. The topical anti-inflammatory activity of the test compound is expressed as the percent inhibition of the increase in ear weight of the irritant treated ear according to the following formula [formula] The ED50 value is calculated from the dose response curve. Six animals are used per group.

Experiment [1] relates to Acetic acid induced writhing in mice. Kind of experiment: Analgesic activity, acetic acid writhing test. In kind it is in vivo, mouse (male). Particulars: Mus musculus, sc, 30 minutes before 0.2 ml of 3% acetic acid i.p.; observed 15 minutes. As to the method:
Analgesic activity--Acetic acid writhing test
A test compound suspended in 0.5% carboxy methyl cellulose is given subcutaneously to the male mice (20-25 g). The control group received only the 0.5% CMC. After 30 minutes, 0.2 ml of 3% acetic acid is administered intraperitoneally. The animals are observed for 15 minutes for a characteristic stretching or writhing syndrome which is indicative of pain induced by acetic acid. Six animals are used per group.
In the test group, mice which show less than or equal to 50 percent of the mean control writhing value are considered to be protected. (Blumberg et al. Proc. Soc. Exp. Biol. Med., 118, 763-766, 1965). The percent analgesic activity is calculated as follows: [formula] The ED50 value is calculated from the dose response curve.

Experiment [2] deals with Adjuvant-induced arthritis in rats. Kind of experiment: Adjuvant-induced arthritis test in rats, developing arthritis. In kind it is in vivo, rat (Charles Foster, female). Particulars: i.p., once daily for 21 days.
For experiment [3] the test system is unchanged. Nature of the experiment: Adjuvant-induced arthritis test in rats, established arthritis. Particulars: i.p., once daily from day 15 to day 21. The class given is in vivo, rat (Charles Foster, female).
The subject of a further experiment is rat paw oedema. Nature of the experiment: Acute carrageenin-induced rat paw oedema test (systemic). In kind it is in vivo, rat (Charles Foster, male). The note with it: ip, paw volume at 3 and 6 hours after carrageenin. As to the method: (a) Acute carrageenin-induced rat paw oedema test Charles Foster male rats (120-150 g) are fasted for 18 hrs. with water ad libitum. The test compound suspended in 0.5% carboxymethyl cellulose (CMC) is given intraperitoneally. The control group receives 0.5% CMC suspension. 0.05 ml of the 0.5% carrageenin suspension is injected subcutaneously into the planter region of the left hind paw. The paw volume is determined before carrageenin injection and at 3 hours and 6 hours after injection using a Maclab volume differential meter. The percentage decrease in paw volume is calculated with the following formula: [formula] The ED50 value is calculated from the dose-response curve. Six animals are used per group.
(The carrageenan paw model is a standard test of acute inflammation.)

In the case of `C=C[C@@]1(C)CC(=O)[C@@H]2[C@@]3(C)CCCC(C)(C)[C@@H]3[C@H](O)[C@H](OC(C)=O)[C@@]2(C)O1` [1,9-Dideoxyforskolin, 7β-acetoxy-1,9-dideoxy-8,13-epoxy-6β-hydroxy-labd-14-en-11-one], the “ED50, croton oil induced rat ear inflammation” value with rat ear inflammation came out at 1.6 mg/ear. Besides, the ED50 in experiment [1] came to 9 mg/kg; in the experiment on rat paw oedema it was 2.2 mg/kg. The “% inhibition of paw volume, developing arthritis” value in experiment [2] (3.0 mg/kg) is 62%. Also, in experiment [3] (3.0 mg/kg), the “% inhibition of paw volume, established arthritis” value was found to be 30%.

For `C=C[C@@]1(C)CC(=O)[C@]2(O)[C@@]3(C)[C@@H](O)CCC(C)(C)[C@@H]3[C@H](O)[C@H](OC(C)=O)[C@@]2(C)O1` [Forskolin, 7β-acetoxy-8,13-epoxy-1α,6β,9α-trihydroxy-labd-14-en-11one], the “ED50, croton oil induced rat ear inflammation” value in the experiment on rat ear inflammation worked out at 1.15 mg/ear. The “% inhibition of paw volume, developing arthritis” value in experiment [2] (2.5 mg/kg) was found to be 23%. The “% inhibition of paw volume, established arthritis” value in experiment [3] (2.4 mg/kg) was 27%. Besides, the 50% effective dose (ED50) in the experiment with rat paw oedema came out at 4.8 mg/kg.

Broadly, the ED50 is the midpoint of the dose-response relation. Low readings indicate greater potency, high ones weaker potency.
